Where “and” joins values, the source holds several entries; their conditions need not be identical. Equal entries are not always repeated. Structures can show the parent of a compound that is named as a salt. Where two headings read alike, the source gives them in different places.
How the values were obtained:
[1] = test system: SARS-CoV-2; experiment: microbe, parasite or virus in culture; type: cell-based
[2] = Uninfected HeLa-ACE2 24 h live/dead cytotoxicity counter screen; type: cell-based, human; conditions: human, uninfected HeLa-ACE2 cells; read-out: HeLa-ACE2 uninfected cytotoxicity CC50 GeoMean
[3] = test system: HeLa-ACE2 cells; experiment: as above; type: cell-based, human; conditions: human, uninfected HeLa-ACE2 cells, 24 h
[4] = test system: SARS-CoV-2; experiment: microbe, parasite or virus in culture; type: cell-based; conditions: Severe acute respiratory syndrome coronavirus 2, Calu-3; read-out: Calu-3 CoV-2 EC50 GeoMean
[5] = test system: SARS-CoV-2; experiment: microbe, parasite or virus in culture; type: cell-based; conditions: for SARS-CoV-2 % infected cells: 10 µM after 1 h infection
[6] = test system: SARS-CoV-2; type: cell-based; conditions: combination with remdesivir
[7] = test system: HeLa-ACE2 cells; experiment: Total cell count in the HeLa-ACE2 TOA (time of addition) assay; type: cell-based, human; conditions: Homo sapiens, HeLa-ACE2; read-out: HeLa-ACE2 TOA cell count EC50 GeoMean
[8] = test system: Calu-3 cells; conditions: human
[9] = test system: HeLa-ACE2 cells; experiment: cells; conditions: Homo sapiens
[10] = test system: Calu-3 cells; experiment: cells; conditions: Homo sapiens, Calu-3, read-out: Calu-3 cell count EC50 GeoMean
[11] = test system: COVID-19; conditions: ref [9]; cited from earlier work
[12] = HepG2 72 h CellTiter-Glo cytotoxicity; conditions: human, HepG2 cells
[13] = test system: HepG2; experiment: HepG2 72 h CellTiter-Glo cytotoxicity; conditions: 72 h
[14] = HEK293T 72 h CellTiter-Glo cytotoxicity; conditions: human, HEK293T cells
[15] = test system: HEK293T; experiment: HEK293T 72 h CellTiter-Glo cytotoxicity; conditions: 72 h
[16] = Uninfected Calu-3 48 h Cell-Titer Glo cytotoxicity counter screen; conditions: human, uninfected Calu-3 cells, Calu-3 uninfected cytotoxicity CC50 GeoMean
[17] = test system: Calu-3 cells; experiment: as above; conditions: human, uninfected Calu-3 cells, 48 h

With `CCN(CCO)CCCC(C)Nc1ccnc2cc(Cl)ccc12` (stereo not shown) [Hydroxychloroquine sulfate] the Emax ([1]; Severe acute respiratory syndrome coronavirus 2, HeLa-ACE2, 24 h, read-out: HeLa-ACE2 CoV-2 Sinf Average) was 100%, the EC50 ([1]; Severe acute respiratory syndrome coronavirus 2, HeLa-ACE2, detail column, read-out: HeLa-ACE2 CoV-2 EC50 GeoMean) was 0.458 µM and the “HeLa-ACE2 SI” value ([1]; selectivity index, uninfected HeLa-ACE2 CC50 / SARS-CoV-2 EC50) was > 40.04. For the same compound, the CC50 at 24 h [2] was > 18.3 µM, the “HeLa-ACE2 uninfected cytotoxicity Sinf Average” value [3] was -99% and the EC50 [4] was > 9.99 µM. The “TOA:HeLa-ACE2 EC50 Ratio” value [5] was 20.968, the “SARS-CoV-2 % infected cells” value ([5]; 4:00:00 post infection) was 0.3802% and 0.1721% and 0.1129% and the “SARS-CoV-2 % infected cells” value ([5]; 5:00:00) was 0.24% and 0.7413% and 0.2751%. For the same compound, the “SARS-CoV-2 % infected cells” value ([5]; 6:00:00) was 11.7654% and 10.6398% and 10.3646%, the “SARS-CoV-2 % infected cells” value ([5]; 7:00:00) was 25.8166% and 25.8417% and 29.0337% and the “SARS-CoV-2 % infected cells” value ([5]; 8:00:00) was 31.116% and 29.6088% and 30.8104%. For the same compound, the “SARS-CoV-2 % infected cells” value ([5]; 10:00:00) was 33.0276% and 34.8116% and 35.0891%, the “SARS-CoV-2 % infected cells” value ([5]; 11:00:00) was 35.46% and 36.5434% and 36.8817% and the “SARS-CoV-2 % infected cells” value ([5]; 12:00:00) was 33.0004% and 35.9224% and 38.4986%. The “SARS-CoV-2 % infected cells” value ([5]; 24:00:00) was 45.3401% and 44.0948% and 41.0805%, the “activity when treatment was initiated at 1 hpi” value ([5]; HeLa-ACE2, 10 µM) was “Loss of activity” and the EC50 ([5]; Severe acute respiratory syndrome coronavirus 2, HeLa-ACE2, detail column, read-out: HeLa-ACE2 TOA CoV-2 EC50 GeoMean) was > 9.61 µM. For the same compound, the “HeLa-ACE2 synergy score with remdesivi” value [6] was -1.572 δ, the EC50 [7] was > 9.61 µM and the cytotox [8] was 13.7874. For the same compound, the Emax ([9]; HeLa-ACE2, 24 h, read-out: HeLa-ACE2 cell count Sinf Average) was -47%, the EC50 ([9]; HeLa-ACE2, read-out: HeLa-ACE2 cell count EC50 GeoMean) was > 5.88 µM and the EC50 [10] was > 9.99 µM. The “mortality of hospitalized COVID-19 patients” value [11] was “failed to reduce mortality”, the CC50 at 72 h [12] was 3.62 µM and the “HepG2 72-hour cytotoxicity Sinf Average” value [13] was -100%. The CC50 at 72 h [14] was 10.1 µM, the “HEK293T 72-hour cytotoxicty Sinf Average” value [15] was -101% and the CC50 at 48 h [16] was > 24.7 µM. For the same compound, the “Calu-3 uninfected cytotoxicity Sinf Average” value [17] was -100%.

Source: PMC8175350, “Drug repurposing screens identify chemical entities for the development of COVID-19 interventions” (Nature Communications, 2021)
